The values below come from ChEMBL document CHEMBL1135199, “Structure-activity relationships of non-imidazole H(3) receptor ligands. Part 2: binding preference for D-amino acids motifs” (Bioorg Med Chem Lett, 2002).

One data set deals with Histamine H1 receptor (Homo sapiens, UniProt P35367). As to the kind of experiment: Binding affinity towards Histamine H1 receptor of human membranes.
Data set [1] in a line: Oral bioavailability in rat (dose 5 mg/kg p.o.). As to conditions: in vivo. The class given is ADME, organism-based.
The target in data set [2] is Histamine H3 receptor (Rattus norvegicus, UniProt Q9QYN8). As to the kind of experiment: Binding affinity towards Histamine H3 receptor of rat cortical membranes.
Data set [3] deals with Histamine H3 receptor (Cavia porcellus, UniProt Q9JI35). As to the kind of experiment: Tested in vitro for histamine H3 receptor mediate inhibition of neurogenic contractions in guinea pig isolated ileum assay. As to conditions: read-out: pA2 (converted). In kind it is functional, tissue-based.
In another data set the target is Histamine H2 receptor (Homo sapiens, UniProt P25021). As to the kind of experiment: Binding affinity towards Histamine H2 receptor from human membranes.
For data set [4], the target named is Histamine H3 receptor (Rattus norvegicus) (UniProt Q9QYN8). As to the kind of experiment: In vitro histamine H3 receptor antagonist activity was determined by K+-evoked depolarization- induced release of [3H]histamine from rat synaptosomes. The class given is functional, subcellular. As to conditions: Brain.
Chain of Histamine H3 receptor (Rattus norvegicus) (Q9QYN8 whole entry): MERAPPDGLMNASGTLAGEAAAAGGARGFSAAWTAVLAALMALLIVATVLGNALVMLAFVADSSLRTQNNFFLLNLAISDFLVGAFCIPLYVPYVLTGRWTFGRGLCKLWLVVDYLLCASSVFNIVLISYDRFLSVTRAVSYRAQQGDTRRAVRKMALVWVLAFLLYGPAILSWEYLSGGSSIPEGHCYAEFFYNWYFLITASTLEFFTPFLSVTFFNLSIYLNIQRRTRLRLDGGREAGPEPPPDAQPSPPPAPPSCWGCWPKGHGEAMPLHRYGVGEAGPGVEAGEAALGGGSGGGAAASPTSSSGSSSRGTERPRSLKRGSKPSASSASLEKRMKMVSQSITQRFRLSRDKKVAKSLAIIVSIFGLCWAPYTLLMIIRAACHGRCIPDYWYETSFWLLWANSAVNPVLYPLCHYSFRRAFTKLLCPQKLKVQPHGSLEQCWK

Chain of Histamine H1 receptor (P35367 whole entry): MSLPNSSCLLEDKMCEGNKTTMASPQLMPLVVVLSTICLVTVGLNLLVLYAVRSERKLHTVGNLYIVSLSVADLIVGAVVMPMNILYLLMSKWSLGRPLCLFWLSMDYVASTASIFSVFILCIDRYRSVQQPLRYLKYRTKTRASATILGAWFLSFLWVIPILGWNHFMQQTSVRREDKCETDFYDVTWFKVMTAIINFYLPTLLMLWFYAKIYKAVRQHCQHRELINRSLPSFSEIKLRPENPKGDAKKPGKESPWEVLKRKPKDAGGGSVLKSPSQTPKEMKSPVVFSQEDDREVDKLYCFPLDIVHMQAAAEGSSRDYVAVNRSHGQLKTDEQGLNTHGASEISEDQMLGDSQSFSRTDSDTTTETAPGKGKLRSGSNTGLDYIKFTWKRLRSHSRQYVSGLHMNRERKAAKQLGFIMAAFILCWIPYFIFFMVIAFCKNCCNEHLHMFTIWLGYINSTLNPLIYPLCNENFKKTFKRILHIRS
Chain of Histamine H3 receptor (Rattus norvegicus, UniProt Q9QYN8) (Q9QYN8 whole entry): as the sequence (Q9QYN8 whole entry) above
Chain of Histamine H2 receptor (P25021 whole entry): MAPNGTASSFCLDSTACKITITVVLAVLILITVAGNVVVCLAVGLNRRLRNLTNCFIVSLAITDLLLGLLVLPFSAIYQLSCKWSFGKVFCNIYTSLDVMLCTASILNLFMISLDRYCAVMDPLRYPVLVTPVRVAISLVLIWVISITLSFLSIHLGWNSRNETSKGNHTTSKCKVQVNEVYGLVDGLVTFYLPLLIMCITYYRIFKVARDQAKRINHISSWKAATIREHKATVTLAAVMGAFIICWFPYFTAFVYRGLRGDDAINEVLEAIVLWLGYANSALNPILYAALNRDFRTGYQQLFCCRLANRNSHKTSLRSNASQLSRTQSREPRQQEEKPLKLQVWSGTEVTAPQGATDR
Chain of Histamine H3 receptor (Cavia porcellus, UniProt Q9JI35) (Q9JI35 whole entry): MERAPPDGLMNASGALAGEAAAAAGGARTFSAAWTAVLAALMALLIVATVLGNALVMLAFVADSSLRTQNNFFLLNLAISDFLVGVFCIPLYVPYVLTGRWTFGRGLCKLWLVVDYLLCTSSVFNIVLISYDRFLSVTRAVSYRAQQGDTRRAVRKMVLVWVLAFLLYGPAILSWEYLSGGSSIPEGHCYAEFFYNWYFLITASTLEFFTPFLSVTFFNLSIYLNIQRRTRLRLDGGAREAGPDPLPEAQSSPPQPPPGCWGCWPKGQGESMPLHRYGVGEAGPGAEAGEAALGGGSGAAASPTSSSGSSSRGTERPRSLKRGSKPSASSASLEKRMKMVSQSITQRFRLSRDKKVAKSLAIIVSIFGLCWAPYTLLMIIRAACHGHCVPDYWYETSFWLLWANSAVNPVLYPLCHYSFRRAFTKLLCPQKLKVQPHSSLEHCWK

`C[C@@H](N)C(=O)N1CCN(CCCOc2ccc(C(=O)C3CC3)cc2)CC1`: the Ki on Histamine H1 receptor was 69.2 µM; at Histamine H3 receptor [2], 0.00126 µM; on Histamine H2 receptor it was 70.8 µM. The same compound returned a bioavailability in data set [1] of 83%. Moreover, at Histamine H3 receptor [3], the Kb was 0.105 µM. In data set [4], this compound registered a pKb of 8.75.

`N[C@H](Cc1c[nH]cn1)C(=O)N1CCN(CCCOc2ccc(C(=O)C3CC3)cc2)CC1`: the figures for the Ki on Histamine H1 receptor, at Histamine H3 receptor [2] and at Histamine H2 receptor were 95.5 µM, 0.00457 µM and 89.1 µM, respectively.

The compound `CCCCCC(=O)c1ccc(OCCCN2CCN(C(=O)OCC)CC2)cc1` displayed a bioavailability in data set [1] of 0%.

For `N[C@@H](C(=O)N1CCN(CCCOc2ccc(C(=O)C3CC3)cc2)CC1)c1ccccc1`, the Ki was 4.57 µM on Histamine H1 receptor, 0.0275 µM at Histamine H3 receptor [2] and 24.5 µM at Histamine H2 receptor.

On to `CCCCCC(=O)c1ccc(OCCCN2CCN(C(=O)[C@H](NC(=O)OC(C)(C)C)C(C)C)CC2)cc1`, for which the Ki was 3.31 µM at Histamine H1 receptor, 0.0148 µM on Histamine H3 receptor [2] and 13.5 µM on Histamine H2 receptor.

With `NCCC(=O)N1CCN(CCCOc2ccc(C(=O)C3CC3)cc2)CC1`, the Ki on Histamine H1 receptor was 28.2 µM; at Histamine H3 receptor [2], 0.000501 µM; on Histamine H2 receptor it was 100 µM. Further, the bioavailability in data set [1] worked out at 46%.

As to `CCCCCC(=O)c1ccc(OCCCN2CCN(C(=O)[C@@H](Cc3ccncc3)NC(=O)OC(C)(C)C)CC2)cc1`, the Ki on Histamine H1 receptor is 17 µM; at Histamine H3 receptor [2], 0.0234 µM; on Histamine H2 receptor, 12 µM.

For the compound `N[C@H](Cc1ccc(-c2ccccc2)cc1)C(=O)N1CCN(CCCOc2ccc(C(=O)C3CC3)cc2)CC1`, the Ki at Histamine H1 receptor is 12 µM; on Histamine H3 receptor [2], 0.132 µM; on Histamine H2 receptor it was 20.4 µM.

Take `CN[C@H](Cc1ccccc1)C(=O)N1CCN(CCCOc2ccc(C(=O)C3CC3)cc2)CC1`: the figures for the Ki on Histamine H1 receptor, on Histamine H3 receptor [2] and on Histamine H2 receptor were 13.5 µM, 0.0437 µM and 17.8 µM, respectively.

Regarding `N[C@H](Cc1ccc(F)cc1)C(=O)N1CCN(CCCOc2ccc(C(=O)C3CC3)cc2)CC1`, the results for the Ki at Histamine H1 receptor, at Histamine H3 receptor [2] and at Histamine H2 receptor were 9.33 µM, 0.0295 µM and 39.8 µM, respectively.

With `CCCCCC(=O)c1ccc(OCCCN2CCN(C(=O)[C@H](Cc3ccncc3)NC(=O)OC(C)(C)C)CC2)cc1`, the figures for the Ki at Histamine H1 receptor, at Histamine H3 receptor [2] and on Histamine H2 receptor were 9.33 µM, 0.0537 µM and 14.8 µM, respectively.

Turning to `CCCCCC(=O)c1ccc(OCCCN2CCN(C(=O)[C@H](N)C(C)C)CC2)cc1`, the Ki is 16.6 µM at Histamine H1 receptor, 0.017 µM on Histamine H3 receptor [2] and 31.6 µM at Histamine H2 receptor.

In the case of `N[C@H](Cc1ccc(O)cc1)C(=O)N1CCN(CCCOc2ccc(C(=O)C3CC3)cc2)CC1`, the figures for the Ki on Histamine H1 receptor, on Histamine H3 receptor [2] and at Histamine H2 receptor were 9.77 µM, 0.0302 µM and 33.1 µM, respectively.

`C[C@H](N)C(=O)N1CCN(CCCOc2ccc(C(=O)C3CC3)cc2)CC1`: the Ki on Histamine H1 receptor is 53.7 µM; on Histamine H3 receptor [2] it was 0.0204 µM; on Histamine H2 receptor, 41.7 µM.

As for `O=C(c1ccc(OCCCN2CCN(C(=O)[C@@H]3CCN3)CC2)cc1)C1CC1`, the Ki at Histamine H1 receptor was 10 µM; at Histamine H3 receptor [2], 0.0129 µM; at Histamine H2 receptor, 12.3 µM.

As to `CC[C@@H](N)C(=O)N1CCN(CCCOc2ccc(C(=O)C3CC3)cc2)CC1` (stereo in doubt; 57), the values for the Ki at Histamine H1 receptor, on Histamine H3 receptor [2] and on Histamine H2 receptor were 2.09 µM, 0.00195 µM and 11 µM, respectively.

As to `N[C@H](Cc1ccsc1)C(=O)N1CCN(CCCOc2ccc(C(=O)C3CC3)cc2)CC1`, the Ki on Histamine H1 receptor was 9.77 µM; on Histamine H3 receptor [2] it was 0.0229 µM; on Histamine H2 receptor, 46.8 µM.
